Drawing on US10189841B2, “Purinones as ubiquitin-specific protease 1 inhibitors” (Forma Therapeutics, Inc., priority 2015, dated 2019), this text covers IC50 for 30 molecules.

pIC50: −log10 of the molar value.

This experiment deals with USP1 (construct USP1 (I-785, GG670, 671AA)/UAF1 (I-677)-Flag) (Homo sapiens (Human), UniProt O94782, G670A/G671A). Kind of experiment: Ubiquitin-Rhodamine 110 assay for USP1 activity. Format: biochemical. The note with it: USP1/UAF1 25 pM, Ub-Rh110 25 nM, 30 min preincubation. In outline: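 Ub-Rh110 (25 nM, ≪Km) cleavage read at ex 485/em 535 in Tris pH 8.0, CaCl2, GSH, Prionex, Triton X-100. The screen used 10 µM compound, 100 pM USP1/UAF1 and 45 min at RT.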
USP1 (construct USP1 (I-785, GG670, 671AA)/UAF1 (I-677)-Flag), sequence (O94782 whole entry G670A/G671A): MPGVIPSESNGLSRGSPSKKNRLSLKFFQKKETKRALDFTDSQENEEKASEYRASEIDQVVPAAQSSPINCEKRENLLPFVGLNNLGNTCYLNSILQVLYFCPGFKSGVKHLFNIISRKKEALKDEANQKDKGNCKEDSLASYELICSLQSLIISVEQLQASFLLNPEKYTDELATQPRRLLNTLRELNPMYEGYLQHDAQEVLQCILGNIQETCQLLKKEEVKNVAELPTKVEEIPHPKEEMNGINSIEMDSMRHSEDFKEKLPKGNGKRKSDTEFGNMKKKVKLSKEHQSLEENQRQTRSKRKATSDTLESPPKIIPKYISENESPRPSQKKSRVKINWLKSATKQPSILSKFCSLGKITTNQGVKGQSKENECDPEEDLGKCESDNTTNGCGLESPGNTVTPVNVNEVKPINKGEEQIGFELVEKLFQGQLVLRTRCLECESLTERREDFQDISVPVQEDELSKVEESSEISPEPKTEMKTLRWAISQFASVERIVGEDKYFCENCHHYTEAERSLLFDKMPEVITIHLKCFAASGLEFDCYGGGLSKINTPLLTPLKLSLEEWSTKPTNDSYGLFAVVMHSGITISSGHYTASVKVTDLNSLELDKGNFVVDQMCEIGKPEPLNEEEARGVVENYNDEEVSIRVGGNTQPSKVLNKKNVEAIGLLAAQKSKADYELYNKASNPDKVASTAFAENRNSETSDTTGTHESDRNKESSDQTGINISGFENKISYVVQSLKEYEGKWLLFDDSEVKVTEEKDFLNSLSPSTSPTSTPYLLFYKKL
USP1 (construct USP1 (I-785, GG670, 671AA)/UAF1 (I-677)-Flag), sequence (Q8TAF3 whole entry partner): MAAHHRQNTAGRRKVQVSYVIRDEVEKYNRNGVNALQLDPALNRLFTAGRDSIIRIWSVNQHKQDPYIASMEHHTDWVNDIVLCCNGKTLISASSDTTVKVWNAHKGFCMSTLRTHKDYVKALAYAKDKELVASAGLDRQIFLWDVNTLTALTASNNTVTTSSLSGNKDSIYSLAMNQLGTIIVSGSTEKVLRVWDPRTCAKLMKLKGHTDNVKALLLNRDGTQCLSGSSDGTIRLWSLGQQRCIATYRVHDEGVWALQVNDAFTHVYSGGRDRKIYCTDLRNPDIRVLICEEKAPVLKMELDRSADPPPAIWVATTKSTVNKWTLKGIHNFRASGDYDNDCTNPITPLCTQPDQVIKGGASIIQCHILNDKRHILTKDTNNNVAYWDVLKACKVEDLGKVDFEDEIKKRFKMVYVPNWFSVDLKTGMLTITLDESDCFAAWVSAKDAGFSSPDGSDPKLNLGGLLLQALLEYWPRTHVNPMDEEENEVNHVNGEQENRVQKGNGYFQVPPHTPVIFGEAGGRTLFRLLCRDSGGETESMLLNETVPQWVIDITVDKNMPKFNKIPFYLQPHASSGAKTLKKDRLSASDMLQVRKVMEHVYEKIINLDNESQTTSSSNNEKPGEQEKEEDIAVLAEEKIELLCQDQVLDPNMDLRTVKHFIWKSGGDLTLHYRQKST
Take `CCC(=O)c1ccccc1-c1ncc2[nH]c(=O)n(Cc3ccc(-c4nc(C(F)(F)F)cn4C)cc3)c2n1` [Compound I-527, 9-(4-(1-methyl-4-(trifluoromethyl)-1H-imidazol-2-yl)benzyl)-2-(2-propionylphenyl)-7,9-dihydro-8H-purin-8-one]: the pIC50 was 5.70 to 6.70.
As to `CC(C)Oc1cc(F)ccc1-c1ncc2[nH]c(=O)n(Cc3ccc(-n4nccn4)cc3)c2n1` [Compound I-15, 9-(4-(2H-1,2,3-triazol-2-yl)benzyl)-2-(4-fluoro-2-isopropoxyphenyl)-7,9-dihydro-8H-purin-8-one], the pIC50 was under 5.70.
To `COCCO[C@H]1CCN(C(=O)c2ccc(Cn3c(=O)[nH]c4cnc(-c5ccccc5C(C)C)nc43)cc2)C1` [Compound I-384, (S)-2-(2-isopropylphenyl)-9-(4-(3-(2-methoxyethoxy)pyrrolidine-1-carbonyl)benzyl)-7,9-dihydro-8H-purin-8-one] belongs 5.70 to 6.70; to `Cc1cc(Cl)n(-c2ccc(Cn3c(=O)[nH]c4cnc(-c5cccnc5C(C)C)nc43)cc2)n1` [Compound I-53, 9-(4-(5-chloro-3-methyl-1H-pyrazol-1-yl)benzyl)-2-(2-isopropylpyridin-3-yl)-7,9-dihydro-8H-purin-8-one], over 7.30.
Take `CC(C)c1ccccc1-c1ncc2c(n1)n(Cc1ccc(-c3nccn3C(F)F)cc1)c(=O)n2C` [Compound I-500, 9-(4-(1-(difluoromethyl)-1H-imidazol-2-yl)benzyl)-2-(2-isopropylphenyl)-7-methyl-7,9-dihydro-8H-purin-8-one]: the pIC50 is over 7.30.
`COC[C@@H](C)Nc1ncccc1-c1ncc2[nH]c(=O)n(Cc3ccc(-c4nc(C(F)(F)F)cn4C)cc3)c2n1` [Compound I-319, (R)-2-(2-((1-methoxypropan-2-yl)amino)pyridin-3-yl)-9-(4-(1-methyl-4-(trifluoromethyl)-1H-imidazol-2-yl)benzyl)-7,9-dihydro-8H-purin-8-one] showed a pIC50 of 5.70 to 6.70.
Take `CC(C)c1ccccc1-c1ncc2[nH]c(=O)n(Cc3ccc(C(=O)NC4CC4)cc3)c2n1` [Compound I-353, N-cyclopropyl-4-((2-(2-isopropylphenyl)-8-oxo-7,8-dihydro-9H-purin-9-yl)methyl)benzamide]: the pIC50 was 6.70 to 7.30.
To `Cn1cc(C(F)(F)F)nc1-c1ccc(Cn2c(=O)n(C)c3cnc(-c4cccnc4OC(F)F)nc32)cc1` [Compound I-48, 2-(2-(difluoromethoxy)pyridin-3-yl)-7-methyl-9-(4-(1-methyl-4-(trifluoromethyl)-1H-imidazol-2-yl)benzyl)-7,9-dihydro-8H-purin-8-one] belongs over 7.30; to `Cc1cc(CO)n(-c2ccc(Cn3c(=O)[nH]c4cnc(-c5ccccc5C5CC5)nc43)cc2)n1` [Compound I-542, 2-(2-Cyclopropylphenyl)-9-(4-(5-(hydroxymethyl)-3-methyl-1H-pyrazol-1-yl)benzyl)-7,9-dihydro-8H-purin-8-one], over 7.30.
In turn, `COCCNC(=O)Nc1ccc(Cn2c(=O)n(C)c3cnc(-c4ccccc4C(C)C)nc32)cc1` [Compound I-482, 1-(4-((2-(2-isopropylphenyl)-7-methyl-8-oxo-7,8-dihydro-9H-purin-9-yl)methyl)phenyl)-3-(2-methoxyethyl)urea] gave a pIC50 of 5.70 to 6.70.
To `Cn1cc(C(F)(F)F)nc1-c1ccc(Cn2c(=O)[nH]c3cnc(-c4cccnc4N4CCOCC4)nc32)cc1` [Compound I-333, 9-(4-(1-methyl-4-(trifluoromethyl)-1H-imidazol-2-yl)benzyl)-2-(2-morpholinopyridin-3-yl)-7,9-dihydro-8H-purin-8-one] belongs 6.70 to 7.30.
On to `CC(C)c1c(F)cccc1-c1ncc2[nH]c(=O)n(Cc3ccc(-n4cc5c(n4)CNC5)cc3)c2n1` [Compound I-104, 9-(4-(5,6-dihydropyrrolo[3,4-c]pyrazol-2(4H)-yl)benzyl)-2-(3-fluoro-2-isopropylphenyl)-7,9-dihydro-8H-purin-8-one], for which the pIC50 was 5.70 to 6.70.
`Cc1cn(C(C)C)c(-c2ccc(Cn3c(=O)[nH]c4cnc(-c5ccccc5C(C)C)nc43)cc2)n1` [Compound I-537, 9-(4-(1-isopropyl-4-methyl-1H-imidazol-2-yl)benzyl)-2-(2-isopropylphenyl)-7,9-dihydro-8H-purin-8-one] had a pIC50 of over 7.30.
`Cc1cn(-c2ccc(Cn3c(=O)[nH]c4cnc(-c5ccccc5C(C)C)nc43)cc2)nn1` [Compound I-175, 2-(2-isopropylphenyl)-9-(4-(4-methyl-1H-1,2,3-triazol-1-yl)benzyl)-7,9-dihydro-8H-purin-8-one]: the pIC50 was over 7.30.
The value for `Cn1cc(C(F)(F)F)nc1-c1ccc(Cn2c(=O)n(C)c3cnc(-c4cccnc4C4CC4)nc32)cc1` [Compound I-71, 2-(2-cyclopropylpyridin-3-yl)-7-methyl-9-(4-(1-methyl-4-(trifluoromethyl)-1H-imidazol-2-yl)benzyl)-7,9-dihydro-8H-purin-8-one] was over 7.30.
The molecule `CC(C)CNC(=O)c1ccc(Cn2c(=O)[nH]c3cnc(-c4ccccc4C(C)C)nc32)cc1` [Compound I-357, N-isobutyl-4-((2-(2-isopropylphenyl)-8-oxo-7,8-dihydro-9H-purin-9-yl)methyl)benzamide] gave a pIC50 of 6.70 to 7.30.
`CC(C)c1ccccc1-c1ncc2[nH]c(=O)n(Cc3cccc(-n4cccn4)c3)c2n1` [Compound I-197, 9-(3-(1H-pyrazol-1-yl)benzyl)-2-(2-isopropylphenyl)-7,9-dihydro-8H-purin-8-one] had a pIC50 of 6.70 to 7.30.
Regarding `Cc1cn(C)c(-c2ccc(Cn3c(=O)[nH]c4cnc(-c5cccc(F)c5C(C)C)nc43)cc2)n1` [Compound I-307, 9-(4-(1,4-dimethyl-1H-imidazol-2-yl)benzyl)-2-(3-fluoro-2-isopropylphenyl)-7,9-dihydro-8H-purin-8-one], the pIC50 was over 7.30.
On to `CC(C)c1ccccc1-c1ncc2[nH]c(=O)n(Cc3ccc(C(=O)N4CCC[C@@H]4C)cc3)c2n1` [Compound I-395, (S)-2-(2-isopropylphenyl)-9-(4-(2-methylpyrrolidine-1-carbonyl)benzyl)-7,9-dihydro-8H-purin-8-one], for which the pIC50 was over 7.30.
The molecule `Cn1cc(C(F)(F)F)nc1-c1ccc(Cn2c(=O)n(C)c3cnc(-c4cccnc4N4CC(C(F)(F)F)C4)nc32)cc1` [Compound I-136, 7-methyl-9-(4-(1-methyl-4-(trifluoromethyl)-1H-imidazol-2-yl)benzyl)-2-(2-(3-(trifluoromethyl)azetidin-1-yl)pyridin-3-yl)-7,9-dihydro-8H-purin-8-one] showed a pIC50 of 6.70 to 7.30.
Molecule `CC(C)c1ccccc1-c1ncc2[nH]c(=O)n(Cc3ccc(C(=O)N(C)C4CC4)cc3)c2n1` [Compound I-379, N-cyclopropyl-4-((2-(2-isopropylphenyl)-8-oxo-7,8-dihydro-9H-purin-9-yl)methyl)-N-methylbenzamide] had a pIC50 of over 7.30.
`CC(C)c1ccccc1-c1ncc2c(n1)n(Cc1ccc(-c3nccn3C(C)C)cc1)c(=O)n2C` [Compound I-497, 9-(4-(1-isopropyl-1H-imidazol-2-yl)benzyl)-2-(2-isopropylphenyl)-7-methyl-7,9-dihydro-8H-purin-8-one] showed a pIC50 of over 7.30.
To `CC(=O)N1CCC(c2ccn(-c3ccc(Cn4c(=O)[nH]c5cnc(-c6c(F)cccc6C(C)C)nc54)cc3)n2)CC1` [Compound I-474, 9-(4-(3-(1-acetylpiperidin-4-yl)-1H-pyrazol-1-yl)benzyl)-2-(2-fluoro-6-isopropylphenyl)-7,9-dihydro-8H-purin-8-one] belongs over 7.30; to `CC(C)Oc1ncccc1-c1ncc2[nH]c(=O)n(Cc3ccc(-c4nc(C(F)(F)F)cn4C)cc3)c2n1` [Compound I-416, 2-(2-isopropoxypyridin-3-yl)-9-(4-(1-methyl-4-(trifluoromethyl)-1H-imidazol-2-yl)benzyl)-7,9-dihydro-8H-purin-8-one], over 7.30.
`CCC1CCCCN1C(=O)c1ccc(Cn2c(=O)[nH]c3cnc(-c4ccccc4C(C)C)nc32)cc1` (stereo not drawn) [Compound I-397, 9-(4-(2-ethylpiperidine-1-carbonyl)benzyl)-2-(2-isopropylphenyl)-7,9-dihydro-8H-purin-8-one] gave a pIC50 of over 7.30.
`CN1CCc2cccc(-c3ncc4[nH]c(=O)n(Cc5ccc(-c6nc(C(F)(F)F)cn6C)cc5)c4n3)c21` [Compound I-34, 9-(4-(1-methyl-4-(trifluoromethyl)-1H-imidazol-2-yl)benzyl)-2-(1-methylindolin-7-yl)-7,9-dihydro-8H-purin-8-one] had a pIC50 of over 7.30.
For the molecule `CCC(C)Oc1ncccc1-c1ncc2[nH]c(=O)n(Cc3ccc(-c4nc(C(F)(F)F)cn4C)cc3)c2n1` (stereo not drawn) [Compound I-417, 2-(2-(sec-butoxy)pyridin-3-yl)-9-(4-(1-methyl-4-(trifluoromethyl)-1H-imidazol-2-yl)benzyl)-7,9-dihydro-8H-purin-8-one], the pIC50 is over 7.30.
The value for `Cc1cc(C(=O)N(C)C)nn1-c1ccc(Cn2c(=O)[nH]c3cnc(-c4ccccc4C(C)C)nc32)cc1` [Compound I-503, 1-(4-((2-(2-Isopropylphenyl)-8-oxo-7,8-dihydro-9H-purin-9-yl)methyl)phenyl)-N,N,5-trimethyl-1H-pyrazole-3-carboxamide] was over 7.30; that for `Cn1cc(C(F)(F)F)nc1-c1ccc(Cn2c(=O)[nH]c3cnc(-c4cccnc4OC(F)F)nc32)cc1` [Compound I-35, 2-(2-(difluoromethoxy)pyridin-3-yl)-9-(4-(1-methyl-4-(trifluoromethyl)-1H-imidazol-2-yl)benzyl)-7,9-dihydro-8H-purin-8-one] was over 7.30; that for `CC(C)c1ccccc1-c1ncc2[nH]c(=O)n(Cc3ccc(-c4nc(C(F)(F)F)cn4C)cc3)c2n1` [Compound I-138, 2-(2-Isopropylphenyl)-9-(4-(1-methyl-4-(trifluoromethyl)-1H-imidazol-2-yl)benzyl)-7,9-dihydro-8H-purin-8-one] was over 7.30.
